Melting point data for 88 molecules are collected here from a melting point compilation (Tetko et al.; mined from patent text by program, amines drawn as free bases though some values may be those of a salt).

A value given as a limit tells only on which side of the number the result lay.

`COCc1cc(N)no1` had a melting point of 49 to 52 °C.
As for `CCOC(=O)C1=C(C)NC(N)=C(C(=O)OCC)C1c1cccc([N+](=O)[O-])c1` (stereo not drawn), the melting point stood at 169 °C.
For `COc1cc2c(cc1OC)C(C=Cc1cccc(OC)c1OC)=NN(C(C)=O)C(C)C2` (stereo not drawn), the melting point was in the range of 72 to 74 °C.
For the molecule `COC1=CCCSC1c1cc(N2C(=O)C3=C(CCCC3)C2=O)ccc1Cl` (stereo not drawn), the melting point lay within 116 to 119 °C.
As to `CC1(C)C(=O)N(c2ccc(C#N)c(C(F)(F)F)c2)C(=O)N1Cc1ccccc1Br`, the melting point was in the range of 56 to 58 °C.
As for `COc1ccc(C#N)c(C=C(C)N(C)C)n1`, the figure is 103 to 104 °C; as for `C=CCN(CCC)S(=O)(=O)NC(=O)c1cc(N=C=S)c(F)cc1Cl`, 83 to 85 °C; as for `Cc1cccc(NS(=O)(=O)c2ccc(N3CCNC3=O)cc2)c1C`, 231 to 232 °C.
In the case of `COc1cccc(C(=O)c2cccc(C(=O)O)c2)c1`, the melting point stood at 160 °C.
The same measure for `CCOC(=O)CCc1cc(C(=O)c2ccc(C(=O)OCC)cc2)ccc1OCCCCCBr`: 76.5 to 78 °C; for `CCO/C=C1\SC(=S)N(C)C1=O`: 110 to 111 °C.
In turn, `CC(=O)c1ccc(OCCCCNS(=O)(=O)c2ccc(Br)cc2)cc1` had a melting point of 129 to 130 °C.
The molecule `CCOC(=O)C(=NOC(CC)C(=O)O)c1csc(NC(c2ccccc2)(c2ccccc2)c2ccccc2)n1` (stereo not drawn) showed a melting point of 154 °C.
`CCC(c1oc2ccccc2c(=O)c1-c1ccc(F)cc1)n1cnc2c(N)ncnc21` (stereo not drawn) registered a melting point of 223 to 227 °C.
For the molecule `Cc1ccc(-n2c(-c3ccccc3)c(Br)c(Br)c2-c2ccccc2)cc1`, the melting point was in the range of 227 to 228 °C.
The same measure for `COc1ccc(N2c3ccccc3CCC2c2ccccc2)cc1` (stereo not drawn): 88 to 90 °C; for `CCC12CCC3C4CCC(=O)C=C4CCC3C1CCC2=O` (stereo not drawn): 156 to 158 °C.
For the molecule `CC(C)(C)OC(=O)N[C@@H](CCC(=O)c1ccccc1)C(=O)OC(C)(C)C`, the melting point is 85 °C.
Molecule `O=c1ccoc(C(O)c2ccccc2)c1OCc1ccccc1` (stereo not drawn) returned a melting point of 121 to 122 °C.
For the molecule `Fc1ccccc1CC1CCN(C2CC=C(c3ccc4c(c3)OCO4)CC2)CC1` (stereo not drawn), the melting point lay in the range of 118 to 119 °C.
As for `CCc1cc(C#N)cc2c(NCc3ccc(OC)c(Cl)c3)c(CO)cnc12`, the figure is 188 to 189 °C; as for `N[C@H](C1CCCCC1)C(O)(c1ccc2ccccc2c1)c1ccc2ccccc2c1`, 205 to 206 °C; as for `CCCCNC(=O)OC1c2ccccc2C(=O)N1c1ccc2ccc(Cl)nc2n1` (stereo not drawn), 152 °C.
Regarding `Cc1ccc(S(=O)(=O)OCC2COc3ccc(N)c(C=NO)c3O2)cc1` (stereo not drawn), the melting point fell in the range of 164 to 166 °C.
The molecule `FC(F)(F)c1ccc(Nc2nccc(-c3cccc(Cl)c3)n2)cc1` gave a melting point of 202 °C.
As for `CCN(CC)C(=O)c1c(Cl)cccc1C(=O)Nc1ccc(Cn2nc(C(F)(F)F)cc2C(F)(F)F)cc1C`, the figure is 105 to 107 °C.
Regarding `Fc1ccc(-c2ncc(Br)cn2)cc1`, the melting point is 156 °C.
Regarding `CC(C)c1ccc(N(Cc2ccc(N(C)C)nc2)C(=O)C2CCCc3c(O)cccc32)cc1` (stereo not drawn), the melting point stood at 187 °C.
`Cc1nc2cc(C)c(C)cc2c(=O)[nH]1` registered a melting point of 310 to 312 °C.
The same measure for `CN(N)c1ccc(-c2ccccc2)nn1`: 145 to 147 °C; for `C#CCn1nc(-c2cc(C(C)(C)C)c(O)c(C(C)(C)C)c2)c2cccnc21`: 172 to 174 °C; for `CCOC(=O)C(=O)c1cc(OC)c(O)c([N+](=O)[O-])c1`: 165 to 167 °C.
Molecule `O=C(Nc1ncc(C(F)(F)F)o1)C1c2ccccc2Oc2cc(F)ccc21` (racemic) returned a melting point of 250 °C.
On to `COc1cc(OC)cc(\C(C)=C/C=C/C(C)=C/C(=O)Nc2ccc(O)cc2)c1`, for which the melting point fell in the range of 162 to 163 °C.
On to `CCOC(=O)NN=C(c1ccc(Cl)cc1)c1ccc(CS(C)=O)cc1` (stereo not drawn), for which the melting point was in the range of 65 to 70 °C.
`CC(C)c1cccc(C(C)C)c1NC(=O)[C@H](C)N(C)C(=O)OC(C)(C)C` had a melting point of 108 to 110 °C.
Take `Nc1cccc(Cn2c(-c3ccc(-c4cncnc4)cc3)ccc2-c2ccccc2Cl)n1`: the melting point lay within 163 to 164 °C.
As for `CC(=O)Nc1cc(O)ccc1/C=C/c1ccc(O)cc1`, the figure is 227 to 229 °C.
Consider `NC(=O)CNC(=O)c1cccc(-c2cccc3cc(Cc4cccc(C(F)(F)F)c4)sc23)c1`, for which the melting point is 147 to 148 °C.
For `CC(=O)Nc1n[nH]c2cc(Cl)ccc12`, the melting point was determined as 240 °C.
Molecule `CC(OC(=O)C(F)(F)F)C1CCC2C3CC=C4CC(NC(=O)C(F)(F)F)CCC4(C)C3CCC12C` (stereo not drawn) showed a melting point of 140 °C.
The same measure for `COc1cc(C2c3cc4c(cc3C(N)C3COC(=O)C23)OCO4)cc(OC)c1O[Si](C)(C)C(C)(C)C` (stereo not drawn): 236 to 238 °C; for `CSc1cccc2c3c(n(Cc4ccc(Cl)cc4)c12)C(CC(=O)O)CCC3` (stereo not drawn): 141 to 142 °C.
As for `O=C(c1cccs1)c1cccn1N1C(=O)c2ccccc2C1=O`, the melting point is 165 to 166 °C.
For `CCC1OC(=O)C(C)C(OC2CC(C)(OC)C(O)C(C)O2)C(C)C(OC2OC(C)CC(N(C)C)C2O)C(C)(OC)CC(C)C(=O)C(C)C(O)C1(C)O` (stereo not drawn), the melting point came to 100 °C.
On to `CCOC(=O)CCC(=O)CSc1nc2cc(Cl)c(F)cc2c(O)c1C(=O)OCC`, for which the melting point came to 144 °C.
As to `NC=C1Cc2ccccc2C1=O`, the melting point was in the range of 163 to 165 °C.
For the molecule `Cc1ccc(S(=O)(=O)Nc2cccc([N+](=O)[O-])c2N)cc1`, the melting point amounted to 195 °C.
The same measure for `O=C1CCC(=O)N1[C@H]1CC[C@H](Nc2nccc(-n3nnc4ccccc43)n2)CC1`: 205 to 210 °C; for `NCC1CCN(Cc2ccccc2)CC1`: 88 °C.
As for `Cc1onc(OC2CN3CCC2CC3)c1Cl` (stereo not drawn), the figure is 37 to 38 °C; as for `Cc1cc(C)c(Nc2nc(C)ccc2S(=O)(=O)c2ccc(OCc3ccc(C#N)cc3)cc2)c(C)c1`, 208 to 210 °C.
As for `CC(C)C(=O)Oc1ccc(C(=O)c2ccccc2)cc1`, the figure is 69 to 69.5 °C; as for `N#Cc1ccc(Oc2nccc(-c3c(-c4ccc(F)cc4)ncn3C3CCNCC3)n2)cc1`, 192 to 193 °C.
`CN1C[C@@H](O)[C@H](Oc2ccccc2)C1` (relative stereo) came in with a melting point of 89 to 90 °C.
Molecule `CC1(C)c2ccccc2[C@H]2Nc3ccccc3[C@H]21` (relative stereo) showed a melting point of 57 to 59 °C.
With `CCCC(=O)ON=C(c1ccccc1)c1cc(C(C)(C)C)c(O)c(C(C)(C)C)c1`, the melting point fell in the range of 118 to 119 °C.
Take `O=C(c1ccccc1)N1CCc2nnc(NN=C3CCCCC3)cc2C1`: the melting point fell in the range of 188 to 191 °C.
In turn, `COc1ccc2c(c1Br)CCC1C(=O)N(C)C(=O)C21` (stereo not drawn) had a melting point of 196 to 199 °C.
Turning to `CN(C)CC(=O)Nc1ccccc1N`, the melting point was in the range of 119 to 121 °C.
The same measure for `O=C(Nc1ccc2nc(CN3CCCC3)ccc2c1)c1ccc(-c2ccc(Cl)cc2)nc1`: 225 to 227 °C; for `C[Si](C)(C)c1ccc(NC(=O)NC(=O)c2c(F)cccc2F)cc1`: 187 to 189 °C; for `O=c1oc(Oc2ccc(Cl)cc2)nn1-c1ccccc1Cl`: 110 °C.
`CC1Cc2cc3c(cc2C(c2ccc([N+](=O)[O-])cc2)=NN1C(N)=NO)OCO3` (stereo not drawn) gave a melting point of 138 to 145 °C.
`CC(C)(C)OC(=O)N1CCC(c2ccc3[nH]c(=O)[nH]c3c2)CC1` registered a melting point of over 250 °C.
The same measure for `COc1ccc(S(=O)(=O)N2Cc3[nH]c4ccccc4c3CC2C(=O)O)cc1` (stereo not drawn): 154 °C; for `N#Cc1ccc(OS(N)(=O)=O)cc1`: 154 to 156 °C.
With `O=Cc1cn(C(c2ccccc2)(c2ccccc2)c2ccccc2)cn1`, the melting point lay within 186 to 194 °C.
`COc1cc2c(cc1OC)CCC(N(Cc1ccccc1)C(=O)c1ccc(C)cc1)=C2`: the melting point lay in the range of 183 to 185 °C.
`CCCCn1c(=O)c2nc(C(=O)OCC)cn2c2ccccc21` had a melting point of 205 to 209 °C.
As to `CN(C)CCN(c1ccc(N)cc1)S(C)(=O)=O`, the melting point is 147 to 148 °C.
Regarding `COC(=O)CCCc1cc2nc(Cl)ccc2n1S(=O)(=O)c1ccc2c(c1)OCO2`, the melting point was 120 °C.
`CCOC(=O)CC[C@H](NC(=O)c1ccc(CCc2cnc3nc(NC(=O)C(C)(C)C)nc(O)c3c2)cc1)C(=O)OCC` returned a melting point of over 250 °C.
Consider `Cc1ccc(CSc2nnc(-c3ccc4c(c3)CCO4)o2)cc1`, for which the melting point is 190 to 191 °C.
For the molecule `O=C1CNc2ncc(I)cc2N1Cc1c(Cl)cccc1Cl`, the melting point is over 200 °C.
In turn, `N#Cc1ccc(-c2c[nH]nc2C(F)(F)F)cc1SCC(F)(F)F` returned a melting point of 65 to 67 °C.
As for `O=C(O)COCCc1ccc(F)cc1`, the figure is 82 to 85 °C; as for `CN1C(=O)C(C(=O)NCC2CCC(C(=O)O)CC2)S(=O)(=O)c2ccccc21` (stereo not drawn), 203 to 204 °C; as for `CN(Cc1ccc(NC(=O)C2=Cc3cc(-c4cccnc4)ccc3OCC2)cc1)C1CCOCC1`, 158 to 159 °C.
In turn, `C=CCN(CC=C)Cc1c(-c2ccccc2)sc(N)c1C(=O)c1ccc(Cl)cc1` returned a melting point of 155 to 156 °C.
`NS(=O)(=O)c1cccc(NC(=O)c2cnn3c(C(F)(F)F)cc(-c4ccc(Cl)c(Cl)c4)nc23)c1`: the melting point is 302 °C.
As for `COC(=O)CCN(CC(=O)O)CC(=O)O`, the figure is 141 °C.
`CC(C)(C)[Si](OCc1ccc([N+](=O)[O-])cc1)(c1ccccc1)c1ccccc1` displayed a melting point of 80 to 81 °C.
`CC(=O)Nc1ccc(C)c(NCCS(=O)(=O)F)c1` showed a melting point of 154 to 155 °C.
Turning to `CCN(CC)c1ccc(S(=O)(=O)NCCCCC(=O)O)cc1`, the melting point was in the range of 106 to 108 °C.
As for `Cn1c(C(F)(F)F)cc(=O)n(-c2ccc(Cl)c3nc(C(C)(C)C)oc23)c1=O`, the melting point was 146 to 148 °C.
The same measure for `O=C(O)CCCc1ccc([N+](=O)[O-])cn1`: 108 to 110 °C.
Regarding `CC1Nc2ccccc2NC1=S` (stereo not drawn), the melting point was in the range of 92 to 94 °C.

What is called melting point is the temperature, or range, at which the solid turns liquid.
